According to US20100137313A1 (ASTRAZENECA AB, priority 2008, published 2010):

Biological target: S. pneumoniae Topoisomerase IV ATPase (ParE) (Streptococcus pneumoniae serotype 4, UniProt Q59961)
Test: S. pneumoniae Topoisomerase IV ATPase inhibition
Format: biochemical
Details: values marked * are an average of two or more data points, read-out: % Inh (13 μM) of S. pneumoniae Topoisomerase IV ATPase
Method: S. pneumoniae Topoisomerase IV ATPase Inhibition Activity: Compounds may be tested for inhibition of S. pneumoniae ParE ATPase activity using an ammonium molybdate/malachite green-based phosphate detection assay (Lanzetta, P. A., L. J. Alvarez, P. S. Reinach, and O. A. Candia, 1979, 100: 95-97). Assays are performed in multiwell plates in 30 μl reactions containing: 20 mM Tris buffer pH 8.0, 50 mM ammonium acetate, 8.0 mM magnesium chloride, 0.5 mM ethylenediaminetetraacetic acid, 5% glycerol, 5 mM 1,4-Dithio-DL-threitol, 0.005% Brij-35, 5 μg/ml sheared salmon sperm DNA, 1.25 nM S. pneumoniae ParE, 160 μM ATP, and test compound in dimethylsulfoxide. Reactions are quenched with 30 μl of ammonium molybdate/malachite green detection reagent containing 1.2 mM malachite green hydrochloride, 8.5 mM ammonium molybdate tetrahydrate, and 1 M hydrochloric acid. Plates are read in an absorbance plate reader at 650 nm and percent inhibition values are calculated using dimethylsulfoxide (2%)-containing reactions as 0% inhibition and EDTA-containing ([…]) reactions as 100% inhibition controls. An IC50 measurement of compound potency for each compound can be determined from reactions performed in the presence of 10 different compound concentrations.
Many of the compounds of the invention were tested in an assay substantially similar to the assays described above for measuring the inhibition of E.coli GyrB ATPase, E. coli Topoisomerase IV ATPase, S. aureus GyrB ATPase, and S. pneumoniae Topoisomerase IV ATPase, and had IC50 values of <200 μM in one or more assays.

S. pneumoniae Topoisomerase IV ATPase (ParE), sequence (Q59961 whole entry): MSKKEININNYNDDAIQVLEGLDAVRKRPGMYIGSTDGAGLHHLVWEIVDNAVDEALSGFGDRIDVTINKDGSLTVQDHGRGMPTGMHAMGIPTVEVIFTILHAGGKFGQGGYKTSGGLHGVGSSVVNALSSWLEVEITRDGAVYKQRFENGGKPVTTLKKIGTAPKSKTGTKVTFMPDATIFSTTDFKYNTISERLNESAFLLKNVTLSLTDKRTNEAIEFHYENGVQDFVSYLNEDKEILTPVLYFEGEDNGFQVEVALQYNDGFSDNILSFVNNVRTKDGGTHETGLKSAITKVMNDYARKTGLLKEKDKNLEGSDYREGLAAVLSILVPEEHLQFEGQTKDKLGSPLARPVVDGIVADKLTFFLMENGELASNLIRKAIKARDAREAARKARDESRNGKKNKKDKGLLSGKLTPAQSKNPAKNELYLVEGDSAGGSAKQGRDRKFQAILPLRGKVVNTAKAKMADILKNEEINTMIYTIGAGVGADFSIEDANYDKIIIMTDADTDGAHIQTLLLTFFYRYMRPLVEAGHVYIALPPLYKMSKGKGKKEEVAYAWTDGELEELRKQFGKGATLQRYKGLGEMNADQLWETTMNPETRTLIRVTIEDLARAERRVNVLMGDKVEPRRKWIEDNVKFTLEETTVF

Structure (SMILES)	inhibition at 13 µM [%]
O=C(O)[C@@H]1C[C@H]1c1cccc(-c2cnc(Nc3ccc(F)c(Cl)c3)nc2-n2ccc(C(F)(F)F)n2)c1 (racemic) [Example 574, (1,2-trans)-2-(3-(2-(3-chloro-4-fluorophenylamino)-4-(3-(trifluoromethyl)-1H-pyrazol-1-yl)pyrimidin-5-yl)phenyl)cyclopropanecarboxylic acid]	96
CS(=O)(=O)NCCCNc1nc(Nc2ccc(F)c(Cl)c2)ncc1-c1cncnc1 [Ex 378, N-(3-(2-(3-chloro-4-fluorophenylamino)-5,5′-bipyrimidin-4-ylamino)propyl) methanesulfonamide]	75.2
O=C(O)c1cncc(-c2cnc(Nc3cccc(Cl)c3)nc2-n2ccc(C(F)(F)F)n2)c1 [Ex 745, 5-{2-[(3-chlorophenyl)amino]-4-[3-(trifluoromethyl)-1H-pyrazol-1-yl]pyrimidin-5-yl}pyridine-3-carboxylic acid]	100
COc1ncc(-c2cnc(Nc3ccc(F)c(Cl)c3)nc2NCCCN(C)C)cn1 [Example 1, N^2-(3-chloro-4-fluorophenyl)-N^4-(3-(dimethylamino)propyl)-2′-methoxy-5,5′-bipyrimidine-2,4-diamine]	5.14
COC(=O)c1cccc(-c2cnc(Nc3ccc(F)c(Cl)c3)nc2NCCCN(C)C)c1 [Example 2, methyl 3-(2-(3-chloro-4-fluorophenylamino)-4-(3-(dimethylamino)propylamino)pyrimidin-5-yl)benzoate]	77.8
CN(C)CCCNc1nc(Nc2ccc(F)c(Cl)c2)ncc1-c1cccc(NS(C)(=O)=O)c1 [Example 3, N-(3-(2-(3-chloro-4-fluorophenylamino)-4-(3-(dimethylamino)propylamino)pyrimidin-5-yl)phenyl)methanesulfonamide]	56.8
CN(C)CCCNc1nc(Nc2ccc(F)c(Cl)c2)ncc1-c1ccc2cc[nH]c2c1 [Example 4, N^2-(3-chloro-4-fluorophenyl)-N^4-(3-(dimethylamino)propyl)-5-(1H-indol-6-yl)pyrimidine-2,4-diamine]	93.1
CCOC(=O)c1cncc(-c2cnc(Nc3ccc(F)c(Cl)c3)nc2NCCCN(C)C)c1 [Example 5, ethyl 5-(2-(3-chloro-4-fluorophenylamino)-4-(3-(dimethylamino)propylamino)pyrimidin-5-yl) nicotinate]	104
CCOC(=O)c1ccc(-c2cnc(Nc3ccc(F)c(Cl)c3)nc2NCCCN(C)C)cc1 [Example 6, Ethyl 4-(2-(3-chloro-4-fluorophenylamino)-4-(3-(dimethylamino)propylamino)pyrimidin-5-yl)benzoate]	102
COc1ccc(-c2cnc(Nc3ccc(F)c(Cl)c3)nc2NCCCN(C)C)cc1C(F)(F)F [Example 7, N^2-(3-chloro-4-fluorophenyl)-N^4-(3-(dimethylamino)propyl)-5-(4-methoxy-3(trifluoromethyl)phenyl)pyrimidine-2,4-diamine]	98.7
COc1cc(-c2cnc(Nc3ccc(F)c(Cl)c3)nc2NCCCN(C)C)cc(OC)n1 [Example 8, N^2-(3-chloro-4-fluorophenyl)-5-(2,6-dimethoxypyridin-4-yl)-N^4-(3-(dimethylamino)propyl)-pyrimidin-2,4-diamine]	87.6
CN(C)CCCNc1nc(Nc2ccc(F)c(Cl)c2)ncc1-c1cc2ccccc2o1 [Example 9, 5-(benzofuran-2-yl)-N^2-(3-chloro-4-fluorophenyl)-N^4-(3-(dimethylamino)propyl)pyrimidine-2,4-diamine]	60
COc1cc(-c2cnc(Nc3ccc(F)c(Cl)c3)nc2NCCCN(C)C)cc(OC)c1OC [Example 10, N^2-(3-chloro-4-fluorophenyl)-N^4-(3-(dimethylamino)propyl)-5-(3,4,5-trimethoxyphenyl)pyrimidin-2,4-diamine]	99.3
CN(C)CCCNc1nc(Nc2ccc(F)c(Cl)c2)ncc1-c1cccc(NS(=O)(=O)N(C)C)c1 [Example 11, N′-[3-(2-[(3-chloro-4-fluorophenyl)amino]-4-{[3-(dimethylamino)propyl]amino}pyrimidin-5-yl)phenyl]-N,N-dimethylsulfonamide]	18.2
CC(=O)c1ccc(-c2cnc(Nc3ccc(F)c(Cl)c3)nc2NCCCN(C)C)s1 [Example 12, 1-{5-[2-(3-chloro-4-fluorophenylamino)-4-[3-(dimethylamino)propylamino)pyrimidin-5-yl]thiophen-2-yl}ethanone]	108
CN(C)CCCNc1nc(Nc2ccc(F)c(Cl)c2)ncc1-c1ccc(F)c(C#N)c1 [Example 13, 5-{2-(3-chloro-4-fluorophenylamino)-4-[3-(dimethylamino)propylamino]pyrimidin-5-yl}-2-fluorobenzonitrile]	102

Structure (SMILES)	inhibition at 13 µM [%]
CN(C)CCCNc1nc(Nc2ccc(F)c(Cl)c2)ncc1-c1cccc([N+](=O)[O-])c1 [Example 14, N^2-(3-chloro-4-fluorophenyl)-N^4-[3-(dimethylamino)propyl]-5-(3-nitrophenyl) pyrimidin-2,4-diamine]	100
CN(C)CCCNc1nc(Nc2ccc(F)c(Cl)c2)ncc1-c1cncc(C#N)c1 [Example 15, 5-{2-(3-chloro-4-fluorophenylamino)-4-[3-(dimethylamino)propylamino]pyrimidin-5-yl}nicotinitrile]	100
CN(C)CCCNc1nc(Nc2ccc(F)c(Cl)c2)ncc1-c1cn([Si](C)(C)C(C)(C)C)c2ccccc12 [Example 16, 5-[1-(tert-butyldimethylsilyl)-1H-indol-3-yl]-N^2-(3-chloro-4-fluorophenyl)-N^4-[3-(dimethylamino)propyl] pyrimidin-2,4-diamine]	55.3
CN(C)CCCNc1nc(Nc2ccc(F)c(Cl)c2)ncc1-c1ccc(C(=O)O)s1 [Example 17, 5-{2-(3-chloro-4-fluorophenylamino)-4-[3-(dimethylamino)propylamino]pyrimidin-5-yl}thiophene-2-carboxylic acid]	54.8
COc1ccc(-c2cnc(Nc3ccc(F)c(Cl)c3)nc2NCCCN(C)C)cn1 [Example 18, N^2-(3-chloro-4-fluorophenyl)-N^4-[3-(dimethylamino)propyl]-5-(6-methoxy-pyridin-3-yl)pyrimidin-2,4-diamine]	96.6
CN(C)CCCNc1nc(Nc2ccc(F)c(Cl)c2)ncc1-c1cnc(N)nc1 [Example 19, N^2-(3-chloro-4-fluorophenyl)-N^4-[3-(dimethylamino)propyl]-5,5′-bipyrimidin-2,2′,4-triamine]	95.8
CN(C)CCCNc1nc(Nc2ccc(F)c(Cl)c2)ncc1-c1cn[nH]c1 [Example 20, N^2-(3-chloro-4-fluorophenyl)-N^4-[3-(dimethylamino)propyl]-5-(1H-pyrazol-4-yl)pyrimidine-2,4-diamine]	74.6
CN(C)CCCNc1nc(Nc2ccc(F)c(Cl)c2)ncc1-c1ccc(N)nc1 [Example 21, 5-(6-aminopyridin-3-yl)-N^2-(3-chloro-4-fluorophenyl)-N^4-[3-(dimethylamino)propyl]pyrimidine-2,4-diamine]	71.7
COC(=O)c1cc2cc(-c3cnc(Nc4ccc(F)c(Cl)c4)nc3NCCCN(C)C)ccc2s1 [Example 22, Methyl 5-{2-(3-chloro-4-fluorophenylamino)-4-[3-(dimethylamino)propylamino]pyrimidin-5-yl}benzo[b]thiophene-2-carboxylate]	85.3
CN(C)CCCNc1nc(Nc2ccc(F)c(Cl)c2)ncc1-c1cccnc1 [Example 23, N^2-(3-chloro-4-fluorophenyl)-N^4-[3-(dimethylamino)propyl]-5-pyridin-3-ylpyrimidin-2,4-diamine]	95.8
CN(C)CCCNc1nc(Nc2ccc(F)c(Cl)c2)ncc1-c1ccc(/C=C/C(=O)O)cc1 [Example 24, (2E)-3-[4-(2-[(3-chloro-4-fluorophenyl)amino]-4-{[3-(dimethylamino)propyl]-amino}pyrimidin-5-yl)phenyl]prop-2-enoic acid]	98.1
COc1ccc(-c2cnc(Nc3ccc(F)c(Cl)c3)nc2NCCCN(C)C)cc1 [Example 25, N^2-(3-chloro-4-fluorophenyl)-N^4-[3-(dimethylamino)propyl]-5-(4-methoxyphenyl)-pyrimidine-2,4-diamine]	90.5
COc1cccc(-c2cnc(Nc3ccc(F)c(Cl)c3)nc2NCCCN(C)C)c1 [Example 26, N^2-(3-chloro-4-fluorophenyl)-N^4-[3-(dimethylamino)propyl]-5-(3-methoxyphenyl)-pyrimidine-2,4-diamine]	91.7
CN(C)CCCNc1nc(Nc2ccc(F)c(Cl)c2)ncc1-c1ccc(CCC(=O)O)cc1 [Example 27, 3-[4-(2-[(3-chloro-4-fluorophenyl)amino]-4-{[3-(dimethylamino)propyl]-amino}pyrimidin-5-yl)phenyl]propanoic acid]	89.2
COc1ccccc1-c1cnc(Nc2ccc(F)c(Cl)c2)nc1NCCCN(C)C [Example 28, N^2-(3-chloro-4-fluorophenyl)-N^4-[3-(dimethylamino)propyl]-5-(2-methoxyphenyl)-pyrimidin-2,4-diamine]	62.6
